Test results taken from BindingDB's records for doi:10.1021/jm070645a (Rockefeller University, 2007).

Molecular target: Mitogen-activated protein kinase 1 (Homo sapiens, UniProt P28482)
Experiment: Radiological Kinase Inhibition Assay
Conditions: pH 7.5; 22 °C
Method: Kinase activity was assayed for autophosphorylation and phosphorylation of MBP with radio-labeled gamma-32P. IC50 values were calculated from binding curves using LSW Data Analysis Tool Box version 1.1.1 in MicroSoft Excel.

Mitogen-activated protein kinase 1, sequence (P28482 whole entry): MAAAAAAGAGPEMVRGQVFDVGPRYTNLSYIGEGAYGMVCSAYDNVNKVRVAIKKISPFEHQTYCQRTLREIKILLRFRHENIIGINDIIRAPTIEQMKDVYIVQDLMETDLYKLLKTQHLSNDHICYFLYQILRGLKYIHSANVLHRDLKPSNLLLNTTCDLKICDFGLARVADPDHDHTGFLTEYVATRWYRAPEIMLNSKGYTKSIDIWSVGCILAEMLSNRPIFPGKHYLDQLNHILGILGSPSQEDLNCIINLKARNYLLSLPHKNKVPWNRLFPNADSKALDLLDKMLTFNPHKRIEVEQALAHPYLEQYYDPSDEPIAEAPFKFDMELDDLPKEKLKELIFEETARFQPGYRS

| SMILES | IC50 [µM] |
| --- | --- |
| O=C1c2ccccc2C(=O)c2cc(S(=O)(=O)Nc3cccc([N+](=O)[O-])c3)ccc21 [N-(3-nitrophenyl)-9,10-dioxo-9,10-dihydroanthracene-2-sulfonamide] | > 200 |
| O=C1NC(=O)C(=Cc2ccc(Sc3ccc(Cl)cc3)c([N+](=O)[O-])c2)C(=O)N1 [5-({4-[(4-chlorophenyl)sulfanyl]-3-nitrophenyl}methylidene)pyrimidine-2,4,6(1H,3H,5H)-trione] | 53 |
